From patent EP4603105A1, “PHARMACEUTICAL COMPOSITION CONTAINING CYCLIC COMPOUND HAVING SELECTIVE KRAS INHIBITORY EFFECT AGAINST HRAS AND NRAS” (CHUGAI SEIYAKU KABUSHIKI KAISHA, priority 2022, dated 2024)
Like-named read-outs stand apart in the source and are kept apart here.

Columns and labels:
[1] = tested on: human lung cancer strain NCI-H441; experiment: NCI-H441 cell proliferation inhibitory activity (CellTiter-Glo, 4 days); format: cell-based; settings: read-out: NCl-H441 IC50
Summary of the method: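 Readout: […] after the ATP-based reagent. Compound: serial dilutions in dimethyl sulfoxide.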

[2] = biological target: GDP-bound KRAS wild-type protein (Homo sapiens, UniProt P01116); experiment: Binding to KRAS by surface plasmon resonance (SPR), dissociation constant KD
Summary of the method: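 Read-out is KD from 1:1 fitting of single-cycle kinetics sensorgrams, blank-cycle and reference-surface corrected. Proteins were GDP-loaded, biotinylated Avi-fusions freshly captured each cycle at roughly 100–300 RU. Runs were at 30°C in HBS pH 7.4 with MgCl2, GDP and 4% DMSO.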

[3] = biological target: GDP-bound NRAS wild-type protein (Homo sapiens, UniProt P01111); experiment: Binding to NRAS by surface plasmon resonance (SPR), KD and KD ratio to KRAS
Summary of the method: (§1)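 GDP-loaded biotinylated Avi-tag RAS proteins (E. coli-expressed) captured on a Biotin CAPture chip at ~100–300 RU; single-cycle kinetics at 30°C, 100 µL/min, 75 s injections of rising compound concentrations. HBS pH 7.4 running buffer with 1 mM DTT, 10 mM MgCl2, 10 µM GDP, 4% DMSO. KD from 1:1 binding fit.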

[4] = biological target: HRAS wild-type protein (Homo sapiens, UniProt P01112); experiment: Binding to HRAS by surface plasmon resonance (SPR), KD and KD ratio to KRAS
Summary of the method: as §1

[5] = ratio of KD for GDP-bound NRAS wild-type protein to KD for KRAS
[6] = ratio of KD for HRAS wild-type protein to KD for KRAS
[7] = 50% proliferation inhibitory concentration, four days
[8] = Single Cycle Kinetics, 1:1 binding model
[9] = ratio of KD with respect to GDP-bound NRAS wild-type protein to KD with respect to KRAS
[10] = ratio of KD with respect to HRAS wild-type protein to KD with respect to KRAS

Sequence of GDP-bound KRAS wild-type protein (P01116 1-188 isoform P01116-2): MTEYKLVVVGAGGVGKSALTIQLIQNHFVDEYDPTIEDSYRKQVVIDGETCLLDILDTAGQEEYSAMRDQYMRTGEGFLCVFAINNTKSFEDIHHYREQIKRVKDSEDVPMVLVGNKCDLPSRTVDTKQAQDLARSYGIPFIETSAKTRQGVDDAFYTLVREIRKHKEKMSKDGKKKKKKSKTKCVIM
Sequence of GDP-bound NRAS wild-type protein (P01111 whole entry): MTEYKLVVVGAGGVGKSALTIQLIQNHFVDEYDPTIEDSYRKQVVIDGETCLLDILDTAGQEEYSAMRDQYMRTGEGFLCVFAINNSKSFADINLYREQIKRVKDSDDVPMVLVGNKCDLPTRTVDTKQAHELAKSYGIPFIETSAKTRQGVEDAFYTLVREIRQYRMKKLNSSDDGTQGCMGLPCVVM
Sequence of HRAS wild-type protein (P01112 whole entry): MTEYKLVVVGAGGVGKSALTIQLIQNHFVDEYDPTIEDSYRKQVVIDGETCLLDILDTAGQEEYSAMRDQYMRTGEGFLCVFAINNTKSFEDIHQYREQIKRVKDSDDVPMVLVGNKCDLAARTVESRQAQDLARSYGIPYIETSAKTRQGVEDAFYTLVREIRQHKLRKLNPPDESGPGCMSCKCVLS

| IC50 ([1]; NCI-H441 cells, 4 days) [nM] | Kd ([2]; 1:1 binding model) [nM] | IC50 [1, 7] [nM] | Kd [2, 8] [nM] | Kd ([2]; Single Cycle Kinetics) [nM] | SMILES | NRAS /KRAS [3, 5] | HRAS /KRAS [4, 6] | NRAS /KRAS [3, 9] | HRAS /KRAS [4, 10] |
| --- | --- | --- | --- | --- | --- | --- | --- | --- | --- |
| 46.3 | 1 |  |  |  | CCC[C@H]1C(=O)N[C@@H]([C@@H](C)CC)C(=O)N(C2CC2)CC(=O)N(C)[C@H]2C/C=C\CCN(C2=O)[C@@H](Cc2ccc(C)cc2)C(=O)N(C)CC(=O)N[C@@H](CCc2cc(F)c(C(F)(F)F)c(F)c2)C(=O)N2C[C@H](OCC)C[C@H]2C(=O)NC2(CC(C)(C)C2)C(=O)N(C)[C@@H](C(CC)CC)C(=O)N(C)[C@H](C(=O)N(C)C)CC(=O)N1C [PP2560] | AA (a compound having 20 or more is denoted as AA) | A (a compound having 10 or more and less than 20 is denoted as A) |  |  |
|  |  | 118 | 0.69 |  | CCO[C@@H]1C[C@H]2C(=O)NC3(CCC3)C(=O)N(C)[C@@H](C3CCCC3)C(=O)N(C)[C@H](C(=O)N(C)C)CC(=O)N(C)[C@@H](Cc3ccccc3C#N)C(=O)N[C@@H]([C@@H](C)CC)C(=O)N(C)CC(=O)N(C)[C@H]3CCCCCN(C3=O)[C@@H](Cc3ccc(C(F)(F)F)cc3)C(=O)N(C)CC(=O)N[C@@H](CCc3cc(F)c(C(F)(F)F)c(F)c3)C(=O)N2C1 [PP1171] |  |  | B (a compound having 3 or more and less than 10 is denoted as B) | B (a compound having 3 or more and less than 10 is denoted as B) |
| 51.6 |  |  |  | 1.3 | CCCO[C@@H]1C[C@H]2C(=O)NC3(CC(C)(C)C3)C(=O)N(C)[C@@H](C3CCCC3)C(=O)N(C)[C@H](C(=O)N(C)CC)CC(=O)N[C@@H](COCC)C(=O)N[C@@H]([C@@H](C)CC)C(=O)N(C3CC3)CC(=O)N(C)[C@H]3C/C=C\CCN(C3=O)[C@@H](Cc3ccc(C)cc3)C(=O)N(C)CC(=O)N[C@@H](CCc3ccc(C(F)(F)F)c(OC)c3)C(=O)N2C1 [PP3437] | AA (a compound having 20 or more is denoted as AA) | A (a compound having 10 or more and less than 20 is denoted as A) |  |  |
| 12.8 |  |  |  | 0.32 | CCC[C@H]1C(=O)N[C@@H]([C@@H](C)CC)C(=O)N(C)CC(=O)N(C)[C@H]2C/C=C\CCN(C2=O)[C@@H](Cc2ccc(C(F)(F)F)cc2)C(=O)N(C)CC(=O)N[C@@H](CCc2ccc(C(F)(F)F)c(OC)c2)C(=O)N2CC3(CC3)C[C@H]2C(=O)NC2(CCC2)C(=O)N(C)[C@@H](C(CC)CC)C(=O)N(C)[C@H](C(=O)N(C)C)CC(=O)N1C [PP3408] | AA (a compound having 20 or more is denoted as AA) | A (a compound having 10 or more and less than 20 is denoted as A) |  |  |
|  |  | 13 | 0.056 |  | CCO[C@@H]1C[C@H]2C(=O)NC3(CCC3)C(=O)N(C)[C@@H](C3CCCC3)C(=O)N(C)[C@H](C(=O)N(C)C)CC(=O)N(C)[C@@H](CC(F)F)C(=O)N[C@@H]([C@@H](C)CC)C(=O)N(C)CC(=O)N(C)[C@H]3CCCCCN(C3=O)[C@@H](Cc3ccc(F)cc3)C(=O)N(C)CC(=O)N[C@@H](CCc3cc(F)c(C(F)(F)F)c(F)c3)C(=O)N2C1 [PP1191] |  |  | A (a compound having 10 or more and less than 20 is denoted as A) | B (a compound having 3 or more and less than 10 is denoted as B) |
| 17.4 | 0.84 |  |  |  | CCO[C@@H]1C[C@H]2C(=O)NC3(CC(C)(C)C3)C(=O)N(C)[C@@H](C(CC)CC)C(=O)N(C)[C@H](C(=O)N(C)C)CC(=O)N(C)[C@@H](CC3CC3)C(=O)N[C@@H]([C@@H](C)CC)C(=O)N(C)CC(=O)N(C)[C@H]3C/C=C\CCN(C3=O)[C@@H](CC3CCC(F)(F)CC3)C(=O)N(C)CC(=O)N[C@@H](CCc3ccc(C(F)(F)F)c(Cl)c3)C(=O)N2C1 [PP2495] | A (a compound having 10 or more and less than 20 is denoted as A) | A (a compound having 10 or more and less than 20 is denoted as A) |  |  |
|  |  | 6.2 | 0.12 |  | CCO[C@@H]1C[C@H]2C(=O)NC3(CCC3)C(=O)N(C)[C@@H](C3CCCC3)C(=O)N(C)[C@H](C(=O)N3CCCC3)CC(=O)N(C)[C@@H](CC(C)C)C(=O)N[C@@H]([C@@H](C)CC)C(=O)N(C)CC(=O)N(C)[C@H]3C/C=C\CCN(C3=O)[C@@H](Cc3ccc(C(F)(F)F)cc3)C(=O)N(C)CC(=O)N[C@@H](CCc3cc(F)c(C(F)(F)F)c(F)c3)C(=O)N2C1 [PP1295] |  |  | AA (a compound having 20 or more is denoted as AA) | A (a compound having 10 or more and less than 20 is denoted as A) |
| 6.9 |  |  |  | 0.21 | CCC[C@H]1C(=O)N[C@@H]([C@@H](C)CC)C(=O)N(C2CC2)CC(=O)N(C)[C@H]2C/C=C\CCN(C2=O)[C@@H](Cc2ccc(C(F)(F)F)cc2)C(=O)N(C)CC(=O)N[C@@H](CCc2ccc(C(F)(F)F)c(Cl)c2)C(=O)N2CC[C@H](OC)[C@H]2C(=O)N(C)C2(CCC2)C(=O)N(C)[C@@H](C2CCCC2)C(=O)N(C)[C@H](C(=O)N(C)C)CC(=O)N1C [PP3288] | A (a compound having 10 or more and less than 20 is denoted as A) | A (a compound having 10 or more and less than 20 is denoted as A) |  |  |
| 6.5 |  |  |  | 0.26 | CCC[C@H]1C(=O)N[C@@H](C2CCCC2)C(=O)N(C)CC(=O)N(C)[C@H]2C/C=C\CCN(C2=O)[C@@H](Cc2ccc(C)cc2)C(=O)N(C)CC(=O)N[C@@H](CCc2ccc(C(F)(F)F)c(OC)c2)C(=O)N2CC3(CC3)C[C@H]2C(=O)N(C)C2(CCC2)C(=O)N(C)[C@@H]([C@@H](C)CC)C(=O)N(C)[C@H](C(=O)N(C)C)CC(=O)N1C [PP3318] | A (a compound having 10 or more and less than 20 is denoted as A) | A (a compound having 10 or more and less than 20 is denoted as A) |  |  |
| 12.4 |  |  |  | 0.28 | CCCN(C)C(=O)[C@@H]1CC(=O)N(C)[C@@H](CC(C)C)C(=O)N[C@@H]([C@@H](C)CC)C(=O)N(C)CC(=O)N(C)[C@H]2C/C=C\CCN(C2=O)[C@@H](Cc2ccc(C(F)(F)F)cc2)C(=O)N(C)CC(=O)N[C@@H](CCc2cc(F)c(C(F)(F)F)c(F)c2)C(=O)N2C[C@H](OCC)C[C@H]2C(=O)N[C@]2(C[C@@H](OC)C2)C(=O)N(C)[C@@H](C2CCCC2)C(=O)N1C [PP3352] | A (a compound having 10 or more and less than 20 is denoted as A) | B (a compound having 3 or more and less than 10 is denoted as B) |  |  |
| 17.6 | 0.57 |  |  |  | CCC[C@H]1C(=O)N[C@@H]([C@@H](C)CC)C(=O)N(C2CC2)CC(=O)N(C)[C@H]2C/C=C\CCN(C2=O)[C@@H](CC2CCC(F)(F)CC2)C(=O)N(C)CC(=O)N[C@@H](CCc2cc(F)c(C(F)(F)F)c(F)c2)C(=O)N2C[C@H](OCC)C[C@H]2C(=O)NC2(CC(C)(C)C2)C(=O)N(C)[C@@H](C2CCCC2)C(=O)N(C)[C@H](C(=O)N(C)C)CC(=O)N1C [PP2566] | A (a compound having 10 or more and less than 20 is denoted as A) | B (a compound having 3 or more and less than 10 is denoted as B) |  |  |
| 12.6 |  |  |  | 0.22 | CCC[C@H]1C(=O)N[C@@H](C2CCCC2)C(=O)N(C)CC(=O)N(C)[C@H]2C/C=C\CCN(C2=O)[C@@H](Cc2ccc(C)cc2)C(=O)N(C)CC(=O)N[C@@H](CCc2ccc(C(F)(F)F)c(Cl)c2)C(=O)N2CC3(CC3)C[C@H]2C(=O)N(C)C2(CCC2)C(=O)N(C)[C@@H]([C@@H](C)CC)C(=O)N(C)[C@H](C(=O)N(C)C)CC(=O)N1C [PP3326] | A (a compound having 10 or more and less than 20 is denoted as A) | A (a compound having 10 or more and less than 20 is denoted as A) |  |  |
| 138 | 1.4 |  |  |  | CCCOC[C@H]1C(=O)N[C@@H]([C@@H](C)OCC)C(=O)N2CCC[C@H]2C(=O)N(C)[C@H]2C/C=C\CCN(C2=O)[C@@H](Cc2ccc(C)cc2)C(=O)N(C)CC(=O)N[C@@H](CCc2cc(F)c(C(F)(F)F)c(F)c2)C(=O)N2C[C@H](OCC)C[C@H]2C(=O)NC2(CC(C)(C)C2)C(=O)N(C)[C@@H](C2CCCC2)C(=O)N(C)[C@H](C(=O)N(C)CC)CC(=O)N1C [PP2432] | A (a compound having 10 or more and less than 20 is denoted as A) | A (a compound having 10 or more and less than 20 is denoted as A) |  |  |
| 17.2 |  |  |  | 0.18 | CCC[C@H]1C(=O)N[C@@H](C2CCCC2)C(=O)N(C)CC(=O)N(C)[C@H]2C/C=C\CCN(C2=O)[C@@H](Cc2ccc(C)cc2)C(=O)N(C)CC(=O)N[C@@H](CCc2cc(F)c(C(F)(F)F)c(F)c2)C(=O)N2CC3(CC3)C[C@H]2C(=O)N(C)C2(CCC2)C(=O)N(C)[C@@H](C(CC)CC)C(=O)N(C)[C@H](C(=O)N(C)C)CC(=O)N1C [PP3308] | A (a compound having 10 or more and less than 20 is denoted as A) | B (a compound having 3 or more and less than 10 is denoted as B) |  |  |

| SMILES | IC50 ([1]; NCI-H441 cells, 4 days) [nM] | Kd ([2]; 1:1 binding model) [nM] | IC50 [1, 7] [nM] | Kd [2, 8] [nM] | Kd ([2]; Single Cycle Kinetics) [nM] | NRAS /KRAS [3, 5] | HRAS /KRAS [4, 6] | NRAS /KRAS [3, 9] | HRAS /KRAS [4, 10] |
| --- | --- | --- | --- | --- | --- | --- | --- | --- | --- |
| CCO[C@@H]1C[C@H]2C(=O)NC3(CCC3)C(=O)N(C)[C@@H](C3CCCC3)C(=O)N(C)[C@H](C(=O)N(C)C)CC(=O)N(C)[C@@H](CC3CCCC3)C(=O)N[C@@H]([C@@H](C)CC)C(=O)N(C)CC(=O)N(C)[C@H]3C/C=C\CCN(C3=O)[C@@H](Cc3ccc(C(F)(F)F)cc3)C(=O)N(C)CC(=O)N[C@@H](CCc3ccc(C(F)(F)F)c(OC)c3)C(=O)N2C1 [PP1248] |  |  | 7.3 | 0.069 |  |  |  | A (a compound having 10 or more and less than 20 is denoted as A) | A (a compound having 10 or more and less than 20 is denoted as A) |
